Test results as given in patent US9663460B2, “Sulfur derivatives as chemokine receptor modulators” (ALLERGAN, INC., priority 2010, dated 2017).

Target: CCR2 (Homo sapiens (Human), UniProt P41597)
Test: Calcium activity assayed on the FLIPR Tetra in HEK-Gqi5 cells stably expressing CCR2
Assay type: cell-based
Details: FLIPR Tetra calcium assay
Protocol: HEK-Gqi5 cells stably expressing CCR2 were cultured in (DMEM high glucose, 10% FBS, 1% PSA, 400 μg/ml geneticin and 50 μg/ml hygromycin. Appropriate positive control chemokines (MCP-1, MIP1A or RANTES) was used as the positive control agonist for screening compound-induced calcium activity assayed on the FLIPR^Tetra. The drug plates were prepared in 384-well microplates using the EP3 and the MuItiPROBE robotic liquid handling systems. Compounds were synthesized and tested for CCR^2 activity.

Sequence of CCR2 (P41597 whole entry, species assumed): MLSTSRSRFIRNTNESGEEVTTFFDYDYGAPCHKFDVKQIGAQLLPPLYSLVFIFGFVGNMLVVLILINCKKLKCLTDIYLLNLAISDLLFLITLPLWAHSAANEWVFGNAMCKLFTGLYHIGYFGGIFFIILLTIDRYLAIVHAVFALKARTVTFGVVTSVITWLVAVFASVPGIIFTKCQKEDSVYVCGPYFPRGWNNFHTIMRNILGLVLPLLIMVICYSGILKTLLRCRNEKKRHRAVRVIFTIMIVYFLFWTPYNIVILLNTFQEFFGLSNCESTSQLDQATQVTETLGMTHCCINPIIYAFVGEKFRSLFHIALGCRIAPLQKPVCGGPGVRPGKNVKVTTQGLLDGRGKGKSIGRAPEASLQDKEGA

SMILES	CCR2 % ANTAGONISM [%]	IC50 [nM]
CC(=O)Nc1nc(CSc2ccc(Cl)cc2NS(=O)(=O)c2cc3ccccc3o2)cs1 [N-{4-[({2-[(1-benzofuran-2-ylsulfonyl)amino]-4-chlorophenyl}thio)methyl]-1,3-thiazol-2-yl}acetamide]	102	848
N#Cc1ccc(S(=O)(=O)Cc2ccccc2)c(NS(=O)(=O)c2cc3ccccc3o2)c1 [N-[2-(benzylsulfonyl)-5-cyanophenyl]-1-benzofuran-2-sulfonamide]	95	56
CCCn1cnc(C[S+]([O-])c2ccc(Cl)cc2NS(=O)(=O)c2cc3ccccc3o2)c1 (stereo not shown) [N-(5-chloro-2-{[(1-propyl-1H-imidazol-4-yl)methyl]sulfinyl}phenyl)-1-benzofuran-2-sulfonamide]	93	806
O=[N+]([O-])c1cccc([S+]([O-])c2ccc(Cl)cc2NS(=O)(=O)c2ccc(Cl)c(C(F)(F)F)c2)c1 (stereo not shown)	85	509
O=[N+]([O-])c1cccc(C[S+]([O-])c2ccc(F)cc2NS(=O)(=O)c2cc3ccccc3o2)c1 (stereo not shown) [N-{5-fluoro-2-[(3-nitrobenzyl)sulfinyl]phenyl}-1-benzofuran-2-sulfonamide]	96	314
CSc1ccc(Cl)cc1NS(=O)(=O)c1ccc(Cl)c(C)c1 [4-chloro-N-[5-chloro-2-(methylthio)phenyl]-3-methylbenzenesulfonamide]	93	453
CC(C)Sc1ccc(Cl)cc1NS(=O)(=O)c1ccc(Cl)c(C(F)(F)F)c1 [4-chloro-N-[5-chloro-2-(isopropylthio)phenyl]-3-(trifluoromethyl)benzenesulfonamide]	72	379
CC[S+]([O-])c1ccc(Cl)cc1NS(=O)(=O)c1ccc(Cl)c(C(F)(F)F)c1 (stereo not shown) [4-chloro-N-[5-chloro-2-(ethylsulfinyl)phenyl]-3-(trifluoromethyl)benzenesulfonamide]	78	50
Nc1cc(CS(=O)(=O)c2ccc(Cl)cc2NS(=O)(=O)c2cc3ccccc3o2)cc[n+]1[O-] [N-(2-{[(2-amino-1-oxidopyridin-4-yl)methyl]sulfonyl}-5-chlorophenyl)-1-benzofuran-2-sulfonamide]	54	9960
N#Cc1ccc(SCc2ccccc2)c(NS(=O)(=O)c2cc3ccccc3o2)c1 [N-[2-(benzylthio)-5-cyanophenyl]-1-benzofuran-2-sulfonamide]	78	3840
Cc1ccc(S(=O)(=O)Nc2cc(Cl)ccc2[S+](C)[O-])cc1[N+](=O)[O-] (stereo not shown) [N-[5-chloro-2-(methylsulfinyl)phenyl]-4-methyl-3-nitrobenzenesulfonamide]	101	181
Nc1cc(C[S+]([O-])c2ccc(Cl)cc2NS(=O)(=O)c2cc3ccccc3o2)ccn1 (stereo not shown) [N-(2-{[(2-aminopyridin-4-yl)methyl]sulfinyl}-5-chlorophenyl)-1-benzofuran-2-sulfonamide]	101	865
CS(=O)(=O)c1ccc(Cl)cc1NS(=O)(=O)c1ccc(Cl)cc1F [4-chloro-N-[5-chloro-2-(methylsulfonyl)phenyl]-2-fluorobenzenesulfonamide]	98	171
O=c1[nH]cc(CS(=O)(=O)c2ccc(Cl)cc2NS(=O)(=O)c2cc3ccccc3o2)c(=O)[nH]1 [N-(5-chloro-2-{[(2,4-dioxo-1,2,3,4-tetrahydropyrimidin-5-yl)methyl]sulfonyl}phenyl)-1-benzofuran-2-sulfonamide]	0	
CN(C)C(=O)CCS(=O)(=O)c1ccc(Cl)cc1NS(=O)(=O)c1cc2ccccc2o1 [3-({2-[(1-benzofuran-2-ylsulfonyl)amino]-4-chlorophenyl}sulfonyl)-N,N-dimethylpropanamide]	99	76
Nc1ccc(CS(=O)(=O)c2ccc(Cl)cc2NS(=O)(=O)c2cc3ccccc3o2)cc1 [N-{2-[(4-aminobenzyl)sulfonyl]-5-chlorophenyl}-1-benzofuran-2-sulfonamide]	104	90
C[S+]([O-])c1ccc(Cl)cc1NS(=O)(=O)c1cccc(Cl)c1F (stereo not shown) [3-chloro-N-[5-chloro-2-(methylsulfinyl)phenyl]-2-fluorobenzenesulfonamide]	101	61
C[N+](C)([O-])CCCS(=O)(=O)c1ccc(Cl)cc1NS(=O)(=O)c1cc2ccccc2o1 [N-(5-chloro-2-{[3-(dimethylnitroryl)propyl]sulfonyl}phenyl)-1-benzofuran-2-sulfonamide]	83	
O=S(=O)(Nc1cc(Cl)ccc1[S+]([O-])Cc1cccc[n+]1[O-])c1cc2ccccc2o1 (stereo not shown) [N-(5-chloro-2-{[(1-oxidopyridin-2-yl)methyl]sulfinyl}phenyl)-1-benzofuran-2-sulfonamide]	101	846

SMILES	CCR2 % ANTAGONISM [%]	IC50 [nM]
CC(C)(C)OC(=O)Nc1cc(CSc2ccc(Cl)cc2NS(=O)(=O)c2cc3ccccc3o2)ccn1 [tert-butyl {4-[({2-[(1-benzofuran-2-ylsulfonyl)amino]-4-chlorophenyl}thio)methyl]pyridin-2-yl}carbamate]	40	2000
O=S(=O)(Cc1c[nH]cn1)c1ccc(Cl)cc1NS(=O)(=O)c1cc2ccccc2o1 [N-{5-chloro-2-[(1H-imidazol-4-ylmethyl)sulfonyl]phenyl}-1-benzofuran-2-sulfonamide]	106	81
CN(C)C(=O)C[S+]([O-])c1ccc(Cl)cc1NS(=O)(=O)c1ccc(Cl)c(C(F)(F)F)c1 (stereo not shown) [2-{[4-chloro-2-({[4-chloro-3-(trifluoromethyl)phenyl]sulfonyl}amino)phenyl]sulfinyl}-N,N-dimethylacetamide]	100	268
CC(C)NC(=O)CCSc1ccc(Cl)cc1NS(=O)(=O)c1ccc(Cl)c(C(F)(F)F)c1 [3-{[4-chloro-2-({[4-chloro-3-(trifluoromethyl)phenyl]sulfonyl}amino)phenyl]thio}-N-isopropylpropanamide]	59	1030
O=S(=O)(Nc1cc(Cl)ccc1S(=O)(=O)C(F)(F)F)c1cc2ccccc2o1 [N-{5-chloro-2-[(trifluoromethyl)sulfonyl]phenyl}-1-benzofuran-2-sulfonamide]	91	73
CC(=O)NCC[S+]([O-])c1ccc(Cl)cc1NS(=O)(=O)c1ccc(Cl)c(C(F)(F)F)c1 (stereo not shown) [N-(2-{[4-chloro-2-({[4-chloro-3-(trifluoromethyl)phenyl]sulfonyl}amino)phenyl]sulfinyl}ethyl)acetamide]	97	
CS(=O)(=O)c1ccc(Cl)cc1NS(=O)(=O)c1cc2cc(Cl)ccc2o1 [5-chloro-N-[5-chloro-2-(methylsulfonyl)phenyl]-1-benzofuran-2-sulfonamide]	74	2050
COc1ccc(S(=O)(=O)Cc2cccc(N)c2)c(NS(=O)(=O)c2cc3ccccc3o2)c1 [N-{2-[(3-aminobenzyl)sulfonyl]-5-methoxyphenyl}-1-benzofuran-2-sulfonamide]	107	176
O=S(=O)(Nc1cc(Cl)ccc1[S+]([O-])Cc1cccc(O)c1)c1cc2ccccc2o1 (stereo not shown) [N-{5-chloro-2-[(3-hydroxybenzyl)sulfinyl]phenyl}-1-benzofuran-2-sulfonamide]	103	112
CC(C)(C)OC(=O)Nc1cc(CS(=O)(=O)c2ccc(Cl)cc2NS(=O)(=O)c2cc3ccccc3o2)ccn1 [tert-butyl {4-[({2-[(1-benzofuran-2-ylsulfonyl)amino]-4-chlorophenyl}sulfonyl)methyl]pyridin-2-yl}carbamate]	76	2260
Nc1cccc(CS(=O)(=O)c2ccc(Cl)cc2NS(=O)(=O)c2cc3ccccc3o2)[n+]1[O-] [N-(2-{[(6-amino-1-oxidopyridin-2-yl)methyl]sulfonyl}-5-chlorophenyl)-1-benzofuran-2-sulfonamide]	95	264
Nc1nc(C[S+]([O-])c2ccc(Cl)cc2NS(=O)(=O)c2cc3ccccc3o2)cs1 (stereo not shown) [N-(2-{[(2-amino-1,3-thiazol-4-yl)methyl]sulfinyl}-5-chlorophenyl)-1-benzofuran-2-sulfonamide]	100	262
O=S(=O)(Nc1cc(Cl)ccc1[S+]([O-])Cc1ncccn1)c1cc2ccccc2o1 (stereo not shown) [N-{5-chloro-2-[(pyrimidin-2-ylmethyl)sulfinyl]phenyl}-1-benzofuran-2-sulfonamide]	104	506
O=S(=O)(Nc1cc(Cl)ccc1SCCc1ccccn1)c1cc2ccccc2o1 [N-{5-chloro-2-[(2-pyridin-2-ylethyl)thio]phenyl}-1-benzofuran-2-sulfonamide]	84	713
Nc1cccc(CSc2ccc(Cl)cc2NS(=O)(=O)c2cc3ccccc3o2)n1 [N-(2-{[(6-aminopyridin-2-yl)methyl]thio}-5-chlorophenyl)-1-benzofuran-2-sulfonamide]	94	32
Nc1cccc(CSc2ccc(Cl)cc2NS(=O)(=O)c2cc3ccccc3o2)c1 [N-{2-[(3-aminobenzypthio]-5-chlorophenyl}-1-benzofuran-2-sulfonamide]	92	42
O=S(=O)(Cc1cc[nH]n1)c1ccc(Cl)cc1NS(=O)(=O)c1cc2ccccc2o1 [N-{5-chloro-2-[(1H-pyrazol-3-ylmethyl)sulfonyl]phenyl}-1-benzofuran-2-sulfonamide]	102	367
Nc1nnc(C[S+]([O-])c2ccc(Cl)cc2NS(=O)(=O)c2cc3ccccc3o2)[nH]1 (stereo not shown) [N-(2-{[(5-amino-4H-1,2,4-triazol-3-yl)methyl]sulfinyl}-5-chlorophenyl)-1-benzofuran-2-sulfonamide]	48	
